Source: US20150038438A1, “ANTIBACTERIAL COMPOUNDS AND METHODS FOR USE” (PTC THERAPEUTICS, INC., priority 2011, published 2015)
In brackets after ≈: the same amount, converted by molar mass. Structures can show the parent of a compound that is named as a salt.

How the values were obtained:
Test in all cases: Antibacterial activity, microbroth dilution method (MIC)
[1] = test system: Gram-positive Staphylococcus aureus (S. aureus) 29213; format: cell-based; settings: Staphylococcus aureus, Gram-positive S. aureus 29213
Excerpt: (§1) The antibacterial activity from a microbroth dilution method may be presented as the minimum inhibitory concentration (MIC in μg/mL). The MIC value is the lowest concentration of drug which prevents macroscopically visible growth under test conditions.
(§2) Antibacterial activity of test compounds against the super sensitive Gram-negative Escherichia coli (E. coli) BAS849 bacterium, the control Gram-negative E. coli 25922 strain and the Gram-positive Staphylococcus aureus (S. aureus) 29213 bacterium are shown in Table 1.

[2] = test system: super sensitive Gram-negative Escherichia coli (E. coli) BAS849; format: cell-based; settings: Escherichia coli; super sensitive Gram-negative E. coli BAS849; microbroth dilution; read-out: MIC, E. coli BAS849
Excerpt: as §1, §2

[3] = test system: control Gram-negative E. coli 25922 strain; format: cell-based, Escherichia coli; settings: Escherichia coli
Excerpt: as §1, §2

SMILES | MIC [1] | MIC [2] | MIC [3]
CNCCNCc1cc2cc3c(cc2n1C)CCCc1c-3[nH]c(=O)c(C(=O)O)c1O.Cl.Cl [Cpd 143, 4-hydroxy-9-methyl-10-(((2-(methylamino)ethyl)amino)methyl)-2-oxo-1,2,5,6,7,9-hexahydropyrido[3′,2′:6,7]cyclohepta[1,2-f]indole-3-carboxylic acid dihydrochloride] | 12.5 to 150 µg/mL | 3.5 to 12.5 µg/mL | 12.5 to 150 µg/mL
CN1CCc2cc3c(cc21)CCCc1c(O)c(C(=O)O)c(=O)n(C)c1-3 [Cpd 135, 4-hydroxy-1,9-dimethyl-2-oxo-1,2,5,6,7,9,10,11-octahydropyrido[3′,2′:6,7]cyclohepta[1,2-f]indole-3-carboxylic acid] | 3.5 to 12.5 µg/mL (≈ 10.3 to 36.7 µM) | < 1 µg/mL | 12.5 to 150 µg/mL (≈ 36.7 to 441 µM)
CCNCc1cc2cc3c(cc2n1C)C(C)=CCc1c-3[nH]c(=O)c(C(=O)O)c1O.Cl [Cpd 70, 10-((ethylamino)methyl)-4-hydroxy-7,9-dimethyl-2-oxo-1,2,5,9-tetrahydropyrido[3′,2′:6,7]cyclohepta[1,2-f]indole-3-carboxylic acid hydrochloride] | 3.5 to 12.5 µg/mL | 3.5 to 12.5 µg/mL | 3.5 to 12.5 µg/mL
N[C@@H]1[C@H]2CN(c3ccc4c(c3)CCCCc3c-4[nH]c(=O)c(C(=O)O)c3O)C[C@@H]12 [Cpd 127, 10-((cis,cis)-6-amino-3-azabicyclo[3.1.0]hexan-3-yl)-4-hydroxy-2-oxo-1,2,5,6,7,8-hexahydrobenzo[7,8]cycloocta[1,2-b]pyridine-3-carboxylic acid hydrochloride] | 3.5 to 12.5 µg/mL | < 1 µg/mL | < 1 µg/mL
Cl.O=C(O)c1c(O)c2c([nH]c1=O)-c1ccc(N3CCNCC3)cc1CCC2 [Cpd 119, 4-hydroxy-2-oxo-9-(piperazin-1-yl)-2,5,6,7-tetrahydro-1H-benzo[6,7]cyclohepta[1,2-b]pyridine-3-carboxylic acid hydrochloride] | 12.5 to 150 µg/mL | 3.5 to 12.5 µg/mL | 12.5 to 150 µg/mL
CN1CCc2c([nH]c(=O)c(C(=O)O)c2O)-c2ccc(N3CCCC3)cc21 [Cpd 93, 4-hydroxy-7-methyl-2-oxo-9-(pyrrolidin-1-yl)-2,5,6,7-tetrahydro-1H-benzo[b]pyrido[2,3-d]azepine-3-carboxylic acid] | 12.5 to 150 µg/mL (≈ 35.2 to 422 µM) | 3.5 to 12.5 µg/mL (≈ 9.85 to 35.2 µM) | 12.5 to 150 µg/mL (≈ 35.2 to 422 µM)
CN1CCCN(Cc2cc3cc4c(cc3n2C)CCCc2c-4[nH]c(=O)c(C(=O)O)c2O)CC1.Cl.Cl [Cpd 156, 4-hydroxy-9-methyl-10-((4-methyl-1,4-diazepan-1-yl)methyl)-2-oxo-1,2,5,6,7,9-hexahydropyrido[3′,2′:6,7]cyclohepta[1,2-f]indole-3-carboxylic acid dihydrochloride] | 12.5 to 150 µg/mL | < 1 µg/mL | 3.5 to 12.5 µg/mL
Cl.Cn1c(CNCCO)cc2cc3c(cc21)CCCc1c-3[nH]c(=O)c(C(=O)O)c1O [Cpd 147, 4-hydroxy-10-(((2-hydroxyethyl)amino)methyl)-9-methyl-2-oxo-1,2,5,6,7,9-hexahydropyrido[3′,2′:6,7]cyclohepta[1,2-f]indole-3-carboxylic acid hydrochloride] | 12.5 to 150 µg/mL | < 1 µg/mL | 3.5 to 12.5 µg/mL
CN1CCN(Cc2cc3cc4c(cc3n2C)OCCc2c-4[nH]c(=O)c(C(=O)O)c2O)CC1.Cl.Cl [Cpd 176, 4-hydroxy-9-methyl-10-((4-methylpiperazin-1-yl)methyl)-2-oxo-2,5,6,9-tetrahydro-1H-pyrido[2′,3′:4,5]oxepino[3,2-f]indole-3-carboxylic acid dihydrochloride] | 12.5 to 150 µg/mL | < 1 µg/mL | 3.5 to 12.5 µg/mL
CN(C)C1CCCN(c2ccc3c(c2)CCCc2c-3[nH]c(=O)c(C(=O)O)c2O)C1.Cl (stereo not drawn) [Cpd 117, 9-(3-(dimethylamino)piperidin-1-yl)-4-hydroxy-2-oxo-2,5,6,7-tetrahydro-1H-benzo[6,7]cyclohepta[1,2-b]pyridine-3-carboxylic acid hydrochloride] | 12.5 to 150 µg/mL | 3.5 to 12.5 µg/mL | 12.5 to 150 µg/mL
Cl.Cl.Cn1c(CN2CCC(N)CC2)cc2cc3c(cc21)CCCc1c-3[nH]c(=O)c(C(=O)O)c1O [Cpd 29, 10-((4-aminopiperidin-1-yl)methyl)-4-hydroxy-9-methyl-2-oxo-1,2,5,6,7,9-hexahydropyrido[3′,2′:6,7]cyclohepta[1,2-f]indole-3-carboxylic acid dihydrochloride] | 12.5 to 150 µg/mL | < 1 µg/mL | 1 to 3.5 µg/mL
CN(C)CCNCc1cc2cc3c(cc2n1C)CCCc1c-3[nH]c(=O)c(C(=O)O)c1O.Cl.Cl [Cpd 142, 10-(((2-(dimethylamino)ethyl)amino)methyl)-4-hydroxy-9-methyl-2-oxo-1,2,5,6,7,9-hexahydropyrido[3′,2′:6,7]cyclohepta[1,2-f]indole-3-carboxylic acid dihydrochloride] | 12.5 to 150 µg/mL | < 1 µg/mL | 3.5 to 12.5 µg/mL
CC(CO)NCc1cc2cc3c(cc2n1C)CCCc1c-3[nH]c(=O)c(C(=O)O)c1O.Cl (stereo not drawn) [Cpd 151, 4-hydroxy-10-(((1-hydroxypropan-2-yl)amino)methyl)-9-methyl-2-oxo-1,2,5,6,7,9-hexahydropyrido[3′,2′:6,7]cyclohepta[1,2-f]indole-3-carboxylic acid hydrochloride] | 12.5 to 150 µg/mL | 3.5 to 12.5 µg/mL | 1 to 3.5 µg/mL
CN(C)c1ccc2c(c1)SCCc1c-2[nH]c(=O)c(C(=O)O)c1O [Cpd 185, 9-(dimethylamino)-4-hydroxy-2-oxo-1,2,5,6-tetrahydrobenzo[2,3]thiepino[4,5-b]pyridine-3-carboxylic acid] | 12.5 to 150 µg/mL (≈ 37.6 to 451 µM) | < 1 µg/mL | 12.5 to 150 µg/mL (≈ 37.6 to 451 µM)
CN(C)c1ccc2c(c1)CCCc1cc(C(=O)O)c(=O)[nH]c1-2 [Cpd 2, 9-(dimethylamino)-2-oxo-2,5,6,7-tetrahydro-1H-benzo[6,7]cyclohepta[1,2-b]pyridine-3-carboxylic acid] | 12.5 to 150 µg/mL (≈ 41.9 to 503 µM) | < 1 µg/mL | 12.5 to 150 µg/mL (≈ 41.9 to 503 µM)
CC1Cc2cc(N(C)C)ccc2-c2[nH]c(=O)c(C(=O)O)c(O)c21 (stereo not drawn) [Cpd 108, 8-(dimethylamino)-4-hydroxy-5-methyl-2-oxo-1,2,5,6-tetrahydrobenzo[h]quinoline-3-carboxylic acid] | 3.5 to 12.5 µg/mL (≈ 11.1 to 39.8 µM) | < 1 µg/mL | 12.5 to 150 µg/mL (≈ 39.8 to 477 µM)
CC(C)NCc1cc2cc3c(cc2n1C)C(C)CCc1c-3[nH]c(=O)c(C(=O)O)c1O.Cl (stereo not drawn) [Cpd 64, 4-hydroxy-10-((isopropylamino)methyl)-7,9-dimethyl-2-oxo-1,2,5,6,7,9-hexahydropyrido[3′,2′:6,7]cyclohepta[1,2-f]indole-3-carboxylic acid hydrochloride] | 12.5 to 150 µg/mL | 1 to 3.5 µg/mL | 3.5 to 12.5 µg/mL
Cl.Cn1c(CNC2CCC2)cc2cc3c(cc21)CCCc1c-3[nH]c(=O)c(C(=O)O)c1O [Cpd 23, 10-((cyclobutylamino)methyl)-4-hydroxy-9-methyl-2-oxo-1,2,5,6,7,9-hexahydropyrido[3′,2′:6,7]cyclohepta[1,2-f]indole-3-carboxylic acid hydrochloride] | 3.5 to 12.5 µg/mL | < 1 µg/mL | < 1 µg/mL
CC1COc2cc(N3CCCC3)ccc2-c2[nH]c(=O)c(C(=O)O)c(O)c21 (stereo not drawn) [Cpd 83, 4-hydroxy-5-methyl-2-oxo-9-(pyrrolidin-1-yl)-1,2,5,6-tetrahydrobenz[2,3]oxepino[4,5-b]pyridine-3-carboxylic acid] | 3.5 to 12.5 µg/mL (≈ 9.82 to 35.1 µM) | < 1 µg/mL | 12.5 to 150 µg/mL (≈ 35.1 to 421 µM)
Cl.O=C(O)c1c(O)c2c([nH]c1=O)-c1ccc(N3CC4CCCNC4C3)cc1NCC2 (stereo not drawn) [Cpd 98, 9-(hexahydro-1H-pyrrolo[3,4-b]pyridin-6(2H)-yl)-4-hydroxy-2-oxo-2,5,6,7-tetrahydro-1H-benzo[b]pyrido[2,3-d]azepine-3-carboxylic acid hydrochloride] | 12.5 to 150 µg/mL | 12.5 to 150 µg/mL | 12.5 to 150 µg/mL
CNCc1cc2cc3c(cc2n1C)CCCCc1c-3[nH]c(=O)c(C(=O)O)c1O.Cl [Cpd 58, 4-hydroxy-10-methyl-11-((methylamino)methyl)-2-oxo-2,5,6,7,8,10-hexahydro-1H-pyrido[3′,2′:7,8]cycloocta[1,2-f]indole-3-carboxylic acid hydrochloride] | 3.5 to 12.5 µg/mL | < 1 µg/mL | < 1 µg/mL
Cn1ccc2cc3c(cc21)C=CCc1c-3[nH]c(=O)c(C(=O)O)c1O [Cpd 16, 4-hydroxy-9-methyl-2-oxo-1,2,5,9-tetrahydropyrido[3′,2′:6,7]cyclohepta[1,2-f]indole-3-carboxylic acid] | 1 to 3.5 µg/mL (≈ 3.1 to 10.9 µM) | < 1 µg/mL | 1 to 3.5 µg/mL (≈ 3.1 to 10.9 µM)
Cl.Cl.Cn1c(CNCCN)cc2cc3c(cc21)OCCc1c-3[nH]c(=O)c(C(=O)O)c1O [Cpd 180, 10-(((2-aminoethyl)amino)methyl)-4-hydroxy-9-methyl-2-oxo-2,5,6,9-tetrahydro-1H-pyrido[2′,3′:4,5]oxepino[3,2-f]indole-3-carboxylic acid dihydrochloride] | 12.5 to 150 µg/mL | 3.5 to 12.5 µg/mL | 12.5 to 150 µg/mL
CCC(C)NCc1cc2cc3c(cc2n1C)OCCc1c-3[nH]c(=O)c(C(=O)O)c1O.Cl (stereo not drawn) [Cpd 168, 10-((sec-butylamino)methyl)-4-hydroxy-9-methyl-2-oxo-2,5,6,9-tetrahydro-1H-pyrido[2′,3′:4,5]oxepino[3,2-f]indole-3-carboxylic acid hydrochloride] | 3.5 to 12.5 µg/mL | < 1 µg/mL | < 1 µg/mL
CN1CCC2(CCN(c3ccc4c(c3)CCCc3c-4[nH]c(=O)c(C(=O)O)c3O)C2)C1.Cl (stereo not drawn) [Cpd 123, 4-hydroxy-9-(7-methyl-2,7-diazaspiro[4.4]nonan-2-yl)-2-oxo-2,5,6,7-tetrahydro-1H-benzo[6,7]cyclohepta[1,2-b]pyridine-3-carboxylic acid hydrochloride] | 12.5 to 150 µg/mL | < 1 µg/mL | 3.5 to 12.5 µg/mL
